Measurements from article PMC5908295 (Oncotarget, 2018).
Where two headings read alike, the source gives them in different places.

How the values were obtained:
[1] = tested on: MOLM-14; experiment: MTS viability assay, 72 h; conditions: Homo sapiens, MOLM-14, 72 h
Protocol: (§4) 15-25 ×10^3 of MV-4-11, MOLM-13, MOLM-14, MOLM-16, KG-1, Eol-1, SKM-1, PL-21, GDM-1, SKNO-1, RS4;11, Kasumi-3 and Kasumi-6 cells were seeded in 150 μL of culture medium onto individual wells in a 96 well plates, in triplicates. On the same day, 50 μL of medium containing tested inhibitor was added to the wells. Each compound was tested at 8 concentrations, in triplicates. As a negative control, the medium containing 0.1% DMSO was used. […] Staurosporine was used at 10 μM as a positive control. One the day of drug addition, basal signal from untreated cells was measured from in triplicate to determine time zero (T0). […] GI50 and LC50 values were extrapolated from a variable (four-parameter) dose-response curve fitted in GraphPad Prism.

[2] = tested on: MOLM-13; experiment: MTS viability assay, 72 h; conditions: MOLM-13, 72 h; for CC50: read-out: LC50
Protocol: as §4

[3] = tested on: KG-1; experiment: MTS viability assay, 72 h; conditions: KG-1, 72 h; for CC50: read-out: LC50
Protocol: as §4

[4] = tested on: EOL-1; experiment: MTS viability assay, 72 h
Protocol: as §4

[5] = tested on: SIG-M5; experiment: MTS viability assay, 72 h; conditions: SIG-M5, 72 h; for CC50: read-out: LC50
Protocol: (§5) On the same day, 50 μL of medium containing tested inhibitor was added to the wells. Each compound was tested at 8 concentrations, in triplicates. As a negative control, the medium containing 0.1% DMSO was used. […] Staurosporine was used at 10 μM as a positive control. One the day of drug addition, basal signal from untreated cells was measured from in triplicate to determine time zero (T0). […] GI50 and LC50 values were extrapolated from a variable (four-parameter) dose-response curve fitted in GraphPad Prism.

[6] = tested on: SKM-1; experiment: MTS viability assay, 72 h; conditions: SKM-1, 72 h; for CC50: read-out: LC50
Protocol: as §5

[7] = tested on: RS4;11; experiment: MTS viability assay, 72 h; conditions: for CC50: read-out: LC50
Protocol: as §4

[8] = tested on: KASUMI-3; experiment: MTS viability assay, 72 h; conditions: for CC50: read-out: LC50
Protocol: as §4

[9] = tested on: PL-21; experiment: MTS viability assay, 72 h; conditions: PL-21, 72 h
Protocol: as §4

[10] = tested on: SKNO-1; experiment: MTS viability assay, 72 h; conditions: SKNO-1, 72 h
Protocol: as §4

[11] = tested on: KASUMI-6; experiment: MTS viability assay, 72 h
Protocol: as §4

[12] = tested on: OCI-AML-3; experiment: MTS viability assay, 72 h; conditions: OCI-AML-3, 72 h
Protocol: as §4

[13] = tested on: OCI-AML-2; experiment: MTS viability assay, 72 h
Protocol: as §5

[14] = tested on: MV-4-11; experiment: MTS viability assay, 72 h
Protocol: as §5

[15] = tested on: MOLM-16; experiment: MTS viability assay, 72 h
Protocol: as §5

[16] = tested on: MOLM-6; experiment: MTS viability assay, 72 h; conditions: for CC50: read-out: LC50
Protocol: as §4

[17] = tested on: GDM-1; experiment: MTS viability assay, 72 h; conditions: GDM-1, 72 h
Protocol: as §4

[18] = tested on: MOLM-16 (FLT3-WT) cells; experiment: Western blot of FLT3/PIM downstream signaling; type: cell-based; conditions: MOLM-16, 4 hours
Protocol: (§1) Thereafter, we assessed the activities of FLT3-ITD – induced key pro-survival signaling pathways; STAT5, RAF/MEK/ERK and PI3K/AKT (Figure 3). […] Since the expression of a major anti-apoptotic BCL2 family member, MCL1, is regulated by translation, and PIM kinases regulate protein synthesis through 4EBP1, we also assessed the abundance of MCL1.
(§2) Cells were collected, washed twice with cold PBS, and lysed in RIPA buffer and kept on ice for 10 min. Tumor specimens from xenograft studies were homogenized in RIPA buffer using OMNI TH Tissue Homogenizer and kept on ice for 30 min. After incubation, cell and tumor lysates were centrifuged at 13,000×g at 4°C for 10 min and the supernatants were stored at −80°C until use. Protein concentration was measured using the Bradford method. For SDS-PAGE, 50 μg of protein in the Laemmli sample buffer was loaded onto 10% polyacrylamide gels and electrophoresed. Thereafter, proteins were transferred onto polyvinylidene fluoride (PVDF) membranes (Millipore). After blocking with 5% non-fat dry milk/TBS-T or 2% BSA/TBS-T, membranes were incubated with specific primary antibodies (listed in Supplementary Table 2) at 4 °C overnight. After extensive washing in PBS-T, membranes were incubated for 60 min with appropriate secondary peroxidase-conjugated IgG. The immunoreactive proteins were detected using an enhanced chemiluminescence (ECL) substrate (GE Healthcare) and visualized with Hyperfilm-ECL (GE Healthcare Biosciences).

[19] = tested on: MV-4-11 (FLT3-ITD+) cells; experiment: Western blot of FLT3/PIM downstream signaling; type: cell-based; conditions: MV-4-11, 4 hours
Protocol: as §1, §2

[20] = tested on: KG-1 (FLT3-WT) tumor; experiment: KG-1 subcutaneous xenograft; type: in vivo; conditions: KG-1, SCID mice; doses not given
From the text: (§3) All animals were handled in strict accordance with good animal practice as defined by the relevant national and local animal welfare bodies. SCID and SCID/beige C.B-17 mice were provided by Harlan Laboratories or Charles River Laboratories, and were maintained in pathogen free conditions. For the xenograft experiments, age-matched (9-11 weeks old) females were used. 5×10^6 of MV-4-11 or MOLM-16 cells were suspended in a mixture (1:1, v:v) of PBS with Matrigel (BD Biosciences,) and injected subcutaneously (sc), in a total volume of 100 μL, above the groin on the right hind limb. For MOLM-13 and KG-1 cells, a mixture (3:1, v:v) of PBS and Matrigel HC (BD Bioscience,) was used to inject 5 × 10^6 of cell per mouse subcutaneously (sc), in a total volume of 100 μL. When tumors reached 100-130 mm^3, mice were randomized into uniform groups (6-9 mice per group) and subsequently administered the compound. […] At the end of the experiment, mice were anesthetized with isofluran and blood samples for total cell counts and biochemistry were obtained by retro-orbital bleeding. […] 5×10^6 cells suspended in a mixture (3:1, v:v) of PBS and Matrigel were injected as described above. […] Tumor volume was monitored every second day and calculated using the formula: TV = (a^2×b)/2, where “a” is the short axis in millimeters, and “b” is the long axis in millimeters. Body weight was assessed every day.

[21] = tested on: MOLM-14 cells transduced with FLT3 TKD point mutations (D835Y, D835V and F691L); experiment: MTS viability of MOLM-14 cells with FLT3 alleles; type: cell-based; conditions: 72 h
[22] = tested on: MOLM-13 xenografts; experiment: MOLM-13 subcutaneous xenograft; type: in vivo; conditions: MOLM-13, SCID mice; AC220 10 mg/kg QD, other doses not given
From the text: as §3

[23] = tested on: MV-4-11; experiment: Drug interactions (combination index), MTS; type: cell-based; conditions: MV-4-11
Protocol: and AC220 in AML cell lines was assessed using an MTS assay. Cells viability was measured after 72 h incubation with three-fold serial dilutions of compounds, starting at 10 µM concentration. Obtained data were presented as percentage of viable cells compared with control (untreated) cells viability. Error bars indicate SD.
11 cells. Combination index (CI) are shown on the Y axis and compound concentrations are shown on X and Z axes. Values […] and below 0.7- a synergy between tested compounds. Values above 1 indicate an antagonistic effect.
(1 picture or pasted object on this page, not shown here)

## CC(C)(C)c1cc(NC(=O)Nc2ccc(-c3cn4c(n3)sc3cc(OCCN5CCOCC5)ccc34)cc2)no1 [AC220]
[1]
  GI50: < 5 nM
[1]; read-out: LC50
  CC50: 196 nM
[2]; Homo sapiens
  GI50: < 5 nM
  CC50: 42 nM
[3]; Homo sapiens
  GI50: 210 nM
  CC50: > 10000 nM
[4]; Homo sapiens, EOL1, 72 h
  GI50: < 5 nM
[5]; Homo sapiens
  GI50: 558 nM
  CC50: 3090 nM
[6]; Homo sapiens
  GI50: 1130 nM
  CC50: 7790 nM
[7]; Homo sapiens, RS4-11, 72 h
  GI50: 132 nM
  CC50: 6960 nM
[8]; Kasumi-3, 72 h
  GI50: < 5 nM
  CC50: < 5 nM
[9]
  GI50: 412 nM
[10]
  GI50: 6 nM
[11]; 72 h
  GI50: < 5 nM
[12]; Homo sapiens
  GI50: 1180 nM
[12]; Homo sapiens, read-out: LC50
  CC50: > 10000 nM
[13]; Homo sapiens, OCI-AML2, 72 h
  GI50: 499 nM
[13]; Homo sapiens, OCI-AML2, 72 h, read-out: LC50
  CC50: 1240 nM
[14]; Homo sapiens, MV4-11, 72 h
  GI50: < 5 nM
[14]; Homo sapiens, MV4-11, 72 h, read-out: LC50
  CC50: < 5 nM
[15]; MOLM16, 72 h
  GI50: 688 nM
[15]; MOLM16, 72 h, read-out: LC50
  CC50: 8230 nM
[16]; 72 h
  GI50: 681 nM
  CC50: > 10000 nM
[17]; Homo sapiens
  GI50: 33 nM

## N[C@@H]1CCCN(c2c(/C=C3\SC(=O)NC3=O)cccc2-c2ccccc2)C1 [AZD1208]
[18]
  S6 (S235/236) phosphorylation: profound inhibition
[19]
  MCL1 abundance: did not alter
  STAT5 signaling: did not change
[2]; dilutions starting at 10 µM
  GI50: 306 nM
[2]; 50% death relative to T0
  CC50: > 10000 nM
[3]; dilutions starting at 10 µM
  GI50: 20 nM
[3]; 50% death relative to T0
  CC50: > 10000 nM
[20]
  TGI: 59.9%
[4]; EOL-1, 72 h, dilutions starting at 10 µM
  GI50: 89 nM
[5]; dilutions starting at 10 µM
  GI50: > 10000 nM
[5]; 50% death relative to T0
  CC50: > 10000 nM
[6]; dilutions starting at 10 µM
  GI50: > 10000 nM
[6]; 50% death relative to T0
  CC50: > 10000 nM
[7]; RS4;11, 72 h, dilutions starting at 10 µM
  GI50: 4220 nM
[7]; RS4;11, 72 h, 50% death relative to T0
  CC50: > 10000 nM
[8]; KASUMI-3, 72 h, dilutions starting at 10 µM
  GI50: 57 nM
[8]; KASUMI-3, 72 h, 50% death relative to T0
  CC50: 4630 nM
[9]; dilutions starting at 10 µM
  GI50: > 10000 nM
[10]; dilutions starting at 10 µM
  GI50: 5 nM
[21]
  viability of MOLM-14 cells with FLT3-TKD mutants versus FLT3-ITD or parental cells: only marginally affected the viability
[11]; KASUMI-6, 72 h, dilutions starting at 10 µM
  GI50: 19 nM
[22]
  TGI: 19.5%
[12]; dilutions starting at 10 µM
  GI50: > 10000 nM
[13]; OCI-AML-2, 72 h, dilutions starting at 10 µM
  GI50: 333 nM
[14]; MV-4-11, 72 h, dilutions starting at 10 µM
  GI50: 1460 nM
[23]
  combination of AZD1208 and AC220: synergistic effect
[15]; MOLM-16, 72 h, dilutions starting at 10 µM
  GI50: 16 nM
[16]; MOLM-6, 72 h, dilutions starting at 10 µM
  GI50: 973 nM
[16]; MOLM-6, 72 h, 50% death relative to T0
  CC50: > 10000 nM
[17]; dilutions starting at 10 µM
  GI50: 506 nM
